Experiments:
[1] = Solvency of solvents for tetrahydrocurcuminoids (THC), visual check for crystals after storage; details: solute tetrahydrocurcuminoids (THC), 3% test solution, approximately 1:32 solute to solvent ratio, soluble = no visible crystals
[2] = Solvency of solvents for hexylresorcinol, visual check for crystals after storage; type: physicochemical; details: solute hexylresorcinol, 33.5% test solution, approximately 1:2 solute to solvent ratio, soluble = no visible crystals
Procedure: (§1) In the testing provided below, “soluble” (or “solubilize”), in relation to the solubility of a solid solute being tested, means that no visible crystals may be seen after a prescribed storage period at a storage condition. The storage period can vary. Suitable storage periods include about 24 hours, about 1 week, and about 30 days. Suitable storage conditions include ambient conditions or cold storage at 5° C. (approximately 1 atm). In certain embodiments, solubility may be determined after a 24 hour storage period at ambient conditions. In other embodiments, solubility may be determined after 20 days in cold storage. Other testing parameters may include storage for prolonged time periods (e.g., 30 day, 50 days, 60 days, 90 days) and at variable temperatures (e.g., 5° C., 50° C.).
The solvency of an isosorbide diester within the scope of the present invention was tested against two conventional, industry standard solvents. […] A test solution of 33.5% hexylresorcinol is prepared with heating to 70° C. Upon reaching 70° C., the examples may be mixed for about 10 minutes. Place mixtures in a covered vial and cool to the storage temperature. Solubility is evaluated for samples stored 24 hours at ambient conditions. Solubility is also evaluated for samples stored for 7 day at 5° C. followed by equilibration to ambient conditions.

[3] = Solvency of solvents for (S)-Equol, visual check for crystals after storage; type: physicochemical; details: solute (S)-Equol, 6% test solution, approximately 1:16 solute to solvent ratio, soluble = no visible crystals
Procedure: as §1
The solvency of an isosorbide diester within the scope of the present invention was tested against two conventional, industry standard solvents. […] A test solution was of 6% Equol is prepared with heating to 70° C. Upon reaching 70° C., the examples may be mixed for about 10 minutes. Place mixtures in a covered vial and cool to the storage temperature. Solubility is evaluated for samples stored 24 hours at ambient conditions. Solubility is also evaluated for samples stored for 7 day at 5° C. followed by equilibration to ambient conditions.

[4] = then equilibration to ambient conditions

CCCCCCCCCCCC(=O)N(C)CC(=O)OC(C)C [Isopropyl lauroyl sarcosinate, isopropyl lauroyl sarcosinate]
Soluble: Solubility, 24 hour rest at Ambient Conditions ([1]; heated to 70° C.) | Solubility, 7 day storage at 5° C. [1, 4] | Solubility, 24 hour rest at Ambient Conditions ([2]; heated to 70° C.) | Solubility, 7 day storage at 5° C. [2, 4] | Solubility, 24 hour rest at Ambient Conditions ([3]; heated to 70° C.) | Solubility, 7 day storage at 5° C. [3, 4]
